Test results reported in patent US20240279302A1, “OLFACTORY RECEPTOR EXPRESSING METHOD AND RESPONSE MEASUREMENT METHOD” (Kao Corporation, priority 2021, published 2024).
Where two headings read alike, the source gives them in different places.

What was measured:
Assay in all cases: Luciferase assay, sulfur compounds
Format in all cases: cell-based
[1] = biological target: T1, consensus OR2L13 (Homo sapiens, UniProt Q8N349, C217Y/C28L/D174N/F161Y/F208L/F25L/F309S/G145I/H228R/H49R/H6Q/I211L/I240C/I248T/I24L/L123V/L17F/L185P/R301T/S128P/S215A/T115A/T149I/T189M/Y130H/Y82F); settings: in the presence of a copper ion
T1 construct: Flag (N); Rho tag (N); expressed in transfected cells; host or cells: HEK293
T1 sequence (Q8N349 1-312 H6Q/L17F/I24L/F25L/C28L/H49R/Y82F/T115A/L123V/S128P/Y130H/G145I/T149I/F161Y/D174N/L185P/T189M/F208L/I211L/S215A/C217Y/H228R/I240C/I248T/R301T/F309S): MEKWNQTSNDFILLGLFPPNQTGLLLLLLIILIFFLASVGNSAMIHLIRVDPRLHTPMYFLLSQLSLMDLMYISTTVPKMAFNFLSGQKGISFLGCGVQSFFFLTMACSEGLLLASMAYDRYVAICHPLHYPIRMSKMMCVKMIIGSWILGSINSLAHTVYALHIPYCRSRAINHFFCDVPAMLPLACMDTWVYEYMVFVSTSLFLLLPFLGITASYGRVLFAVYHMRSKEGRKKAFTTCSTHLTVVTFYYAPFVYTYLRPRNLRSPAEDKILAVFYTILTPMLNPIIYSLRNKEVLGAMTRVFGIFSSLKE
Procedure: (§1) A reaction solution as to each consensus olfactory receptor prepared in Examples described above was prepared according to the composition shown in Table 4, left standing for 20 minutes in a clean bench, and then added to each well of a 96-well plate (Becton, Dickinson and Company). The original olfactory receptor was used as to OR4S2. Composition shown in Table 20 was used as to OR11H2 and OR4E2. Subsequently, 100 μL of HEK293 cells suspended in DMEM (Nacalai Tesque, Inc.) was inoculated at 2×10^5 cells/cm^2 to each well, and cultured for 24 hours in an incubator kept at 37° C. and 5% CO2. Cells expressing no olfactory receptor (Mock) were provided as a control.
(§2) The medium was removed from the cultures prepared in 1), and 75 μL of a test substance solution (methyl mercaptan (MeSH) (CAS: 74-93-1, Tokyo Chemical Industry Co., Ltd.), dimethyl sulfide (DMS) (CAS: 75-18-3, FUJIFILM Wako Pure Chemical Corp.), dimethyl disulfide (DMDS) (CAS: 624-92-0, Tokyo Chemical Industry Co., Ltd.), concentration range: 0 μM, 1 μM, 3 μM, 10 μM, 30 μM, 100 μM, and 300 μM, or dimethyl trisulfide (DMTS) (CAS: 3658-80-8, Tokyo Chemical Industry Co., Ltd.), concentration range: 0 μM, 0.1 μM, 0.3 μM, 1 μM, 3 μM, 10 μM, and 30 μM) prepared with a fresh medium was added thereto. Under a copper ion addition condition, the test substance solution was adjusted to contain 30 μM copper(II) chloride (FUJIFILM Wako Pure Chemical Corp.) in addition to the odorant. The cells were cultured for 4 hours in a CO2 incubator and the luciferase gene was expressed sufficiently in the cells. Luciferase activity was measured using Dual-Glo™ luciferase assay system (Promega Corp.) in accordance with the operation manual of the product. A luminescence value derived from firefly luciferase induced by test substance stimulation in each well of the 96-well plate was divided by a luminescence value derived from Renilla luciferase to calculate a value (fluc/hRluc) as a signal, which was then used in analysis. The signal under each transfection condition was normalized with the signal value (fluc/hRluc) under an odorant stimulation-free condition defined as 0% and the signal value (fluc/hRluc) by stimulation with 10 μM forskolin defined as 100%, and used as a response (%) in analysis.

[2] = biological target: T2, consensus OR2T1 (Homo sapiens, UniProt O43869, C277R/D138G/I77L/L118F/L265I/L324F/N134D/Q276H/S299T)
T2 construct: expressed in transfected cells; host or cells: HEK293
T2 sequence (O43869 52-369 I77L/L118F/N134D/D138G/L265I/Q276H/C277R/S299T/L324F): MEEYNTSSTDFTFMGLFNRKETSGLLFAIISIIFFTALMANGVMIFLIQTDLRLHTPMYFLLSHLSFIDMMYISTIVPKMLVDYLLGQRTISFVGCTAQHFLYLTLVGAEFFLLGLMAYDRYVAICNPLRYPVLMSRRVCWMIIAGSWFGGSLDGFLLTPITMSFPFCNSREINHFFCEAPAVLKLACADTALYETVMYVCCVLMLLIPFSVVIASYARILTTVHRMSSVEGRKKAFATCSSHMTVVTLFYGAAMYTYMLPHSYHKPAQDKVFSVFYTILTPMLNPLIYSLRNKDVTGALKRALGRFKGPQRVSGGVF
Procedure: as §1, §2

[3] = biological target: T3, consensus OR4E2 (Homo sapiens, UniProt Q8NGC2, A48T/F285L/G158V/H228Q/I116T/I142V/I197M/I47V/L183P/M219T/M25I/M36V/Q234R/R21W/S209T/S40L/S54R/T201S/T49I/T99A/V118M/V214L); settings: for dose dependence of the response of consensus OR4E2 / response of consensus OR4E2: in the presence of a copper ion
T3 construct: Flag (N); Rho tag (N); expressed in transfected cells; host or cells: HEK293
T3 sequence (Q8NGC2 1-312 R21W/M25I/M36V/S40L/I47V/A48T/T49I/S54R/T99A/I116T/V118M/I142V/G158V/L183P/I197M/T201S/S209T/V214L/M219T/H228Q/Q234R/F285L limits assumed): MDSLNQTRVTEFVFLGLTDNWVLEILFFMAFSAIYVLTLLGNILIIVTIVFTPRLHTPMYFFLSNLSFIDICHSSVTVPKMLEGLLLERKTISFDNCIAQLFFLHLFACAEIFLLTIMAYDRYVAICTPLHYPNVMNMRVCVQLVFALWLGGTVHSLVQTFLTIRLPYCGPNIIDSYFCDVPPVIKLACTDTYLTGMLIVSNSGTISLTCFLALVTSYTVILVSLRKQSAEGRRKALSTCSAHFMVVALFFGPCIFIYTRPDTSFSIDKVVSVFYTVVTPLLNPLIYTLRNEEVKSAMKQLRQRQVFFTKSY
Procedure: as §1, §2

[4] = biological target: T4, OR4S2 (original olfactory receptor) (Homo sapiens, UniProt Q8NH73); settings: for response of OR4S2 / dose dependence of the response of OR4S2: in the presence of a copper ion
T4 construct: expressed in transfected cells; host or cells: HEK293
T4 sequence (Q8NH73 1-311): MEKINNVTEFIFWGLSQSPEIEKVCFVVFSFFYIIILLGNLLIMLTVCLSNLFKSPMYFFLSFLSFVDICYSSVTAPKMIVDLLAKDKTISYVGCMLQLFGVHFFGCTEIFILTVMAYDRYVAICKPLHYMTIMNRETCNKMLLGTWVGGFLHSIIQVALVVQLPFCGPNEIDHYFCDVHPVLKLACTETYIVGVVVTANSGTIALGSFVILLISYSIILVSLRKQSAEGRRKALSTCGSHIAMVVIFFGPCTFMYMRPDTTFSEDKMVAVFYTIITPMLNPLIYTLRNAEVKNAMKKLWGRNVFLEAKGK
Procedure: as §1, §2

[5] = in the presence of a copper ion

CS [methyl mercaptan]
response of consensus OR2L13 [1]: responded
EC50 [2]: 33 µM
dose dependence of the response of consensus OR2T1 [2, 5]: dose-dependent response
response of consensus OR2T1 [2, 5]: responded
EC50 [3]: 250 µM
dose dependence of the response of consensus OR4E2 [3]: dose-dependent response
response of consensus OR4E2 [3]: responded
response of OR4S2 [4]: responded

CSSSC [dimethyl trisulfide]
response of consensus OR2L13 [1]: responded
response of consensus OR2T1 [2, 5]: responded
EC50 ([3]; consensus OR4E2, 30 μM CuCl2, read-out: EC50(μM) with 30 μM CuCl2): 33 µM
dose dependence of the response of consensus OR4E2 [3]: dose-dependent response
response of consensus OR4E2 [3]: responded
EC50 ([4]; OR4S2 (original), 30 μM CuCl2, read-out: EC50(μM) with 30 μM CuCl2): 28 µM
dose dependence of the response of OR4S2 [4]: dose-dependent response
response of OR4S2 [4]: responded

CSSC [dimethyl disulfide]
response of consensus OR2L13 [1]: responded
response of consensus OR2T1 [2, 5]: responded
EC50 [3]: 397 µM
dose dependence of the response of consensus OR4E2 [3]: dose-dependent response
response of consensus OR4E2 [3]: responded
EC50 [4]: 530 µM
dose dependence of the response of OR4S2 [4]: dose-dependent response
response of OR4S2 [4]: responded
